{"source": "patent US20240069027A1", "about": "“USE OF NITROGEN-DOPED CARBON FLUORESCENT QUANTUM DOT IN PREPARATION OF PRODUCT FOR DETECTING AEROBIC GLYCOLYSIS” (SHANGHAI NINTH PEOPLE'S HOSPITAL, SHANGHAI JIAOTONG …, priority 2020, published 2024)", "tested_on": "A375 cells", "assay": "Aerobic glycolysis (NAD+) fluorescence of PFK15-treated A375 cells read out with C3N quantum dots", "format": "cell-based", "settings": "PFK15 20 nM, 12 h; then C3N quantum dots 1 μg/mL 2 h at 25° C.; excitation 400 nm", "method": "A375 cells were selected as the samples to be tested with a cell concentration of 10^5.\n[…] (PFK15, 20 nM) was added to the cell samples to be tested and incubated for 12 h. C3N quantum dots (with a diameter of 1 nm, a concentration of 1 μg/mL, a solvent of saline) were selected as the aerobic glycolysis detection product. 1 μL of C3N quantum dots were added to the samples to be tested and incubated for 2 h at 25° C. The fluorescence of the samples was observed by a fluorescence microscope (with an excitation wavelength of 400 nm). It can be seen that the fluorescence of the A375 cells with PFK15 treatment (PFK15 can block the aerobic glycolysis metabolism and reduce the NAD^+ concentration in cytoplasm) was decreased by 43% compared with that of the group without PFK15 treatment (results were shown in FIG. 5).", "data": [{"smiles": "O=C(C=Cc1ccc2ccccc2n1)c1ccncc1", "note": "[PFK15, 1-(4-pyridinyl)-3-(2-quinolinyl)-2-propen-1-one]", "values": [{"measurement": "decrease of fluorescence of A375 cells compared with group without PFK15 treatment", "result": 43, "unit": "%"}]}]}
